Assay results published in patent US4701521A, “Method of effecting cellular uptake of molecules” (The Trustees of Boston University, priority 1979, dated 1987).
Like-named read-outs stand apart in the source and are kept apart here.

Columns and labels:
[1] = tested on: L-929 fibroblasts; assay: Cytocidal effects of 6-MPRP and 6-MPRP-PLL; format: cell-based, mouse
Description: […] After exposure to the free or conjugated drug, the monolayers were kept growing for 2 days in standard growth medium, at which time no cytocidal effect could be detected.

[2] = tested on: L929 fibroblast cells; assay: Cellular uptake of HRP and conjugates as cell-associated peroxidase activity; format: cell-based, mouse
Description: The rate of color development measured at 460 nm (ΔA460 nm /min) was used as an indication of enzymatic activity, and the enzymatic activity measured in the cell extract was used as an expression of cellular uptake.
Following exposure to HRP, or one of its two conjugates, the monolayers of L 929 mouse fibroblasts were washed and detached and the detached cells were washed as described in Example 3. The cells were then lysed and the cell extract used for measurement of enzymatic activity of HRP as described in Example 6.

[3] = tested on: L929 fibroblasts; assay: Cytochemical localization of HRP reaction product (light and electron microscopy); format: cell-based, mouse
[4] = tested on: BHK (DMN^ts) baby hamster kidney cell line; conditions: for Cellular Uptake in 60 min.: 3 μg/ml
Protocol: This experiment was done with a baby hamster kidney cell line (BHK) transformed by exposure to dimethylnitrosamine (DMN), growing with a non-malignant phenotype at 32° C. and a malignant phenotype at 38.5° C. This temperature-sensitive mutant line, called BHK (DMN^ts) was described by G. DeMayorca et al. Proc. Natl. Acad. Sci U.S.A., 70, 46-49 (1973). The cells were grown as monolayers in Dulbecco's high glucose medium. The transition from normal to transformed phenotype requires 3 to 4 population doublings or approximately 56 hours of growth at 38.5° C. The reversion to the normal, non-malignant phenotype likewise require 3 to 4 population doublings or approximately 112 hours of growth at 32° C. […] At time 0, the growth media of the confluent monolayers were replaced by serum free medium prewarmed to 37° C. and containing 3 μg/ml radioiodinated polymer. The monolayers were then incubated for 60 min. at 37° C.

[5] = tested on: Sarcoma S-180 monolayers; conditions: for Uptake, 1-min / Uptake, 60-min: 3 μg/ml ^125 I-PLL, 37° C.; for Uptake, 60-min (Corrected for Concentration of 79 nM): assuming uptake linear with concentration
Description: Poly-L-lysines of three different average molecular weights, i.e., 38,000, 115,000 and 230,000, were radio-iodinated using the Bolton-Hunter Reagent. See Bolton, A. E. and Hunter, W. M., Biochem J., 133, pp 529-38 (1973).

[6] = tested on: variant of the P 1798 lymphosarcoma, steroid-resistant, presumed MTX-sensitive; assay: Antitumor effect (tumor weight), steroid-resistant variant; format: in vivo, BALB/c mice; conditions: for Mean Tumor Weight: Mean ± SEM
Description: The inoculation developed into a palpable tumor within 7-8 days and killed the animal on the average within 14 days. Following inoculation, mice were divided into 4 groups of 4 or 5 mice.
Treatment consisted of one daily intravenous injection for 4 consecutive days, and was begun on Day 11 and Day 12 post-inoculation in experiment number 1 and 2 respectively. All animals were sacrificed one day after the last injection.

[7] = Normal phenotype, PLL MW 125,000, PDL MW 130,000

## O=P(O)(O)OC[C@H]1O[C@@H](n2cnc3c(=S)[nH]cnc32)[C@H](O)[C@@H]1O [6-MPRP, 6-mercaptopurine ribosylphosphate]
[1]; 2×10^-6 M
  growth inhibition, drug present for the duration of the experiment: both compounds had inhibiting effects
[1]; 1 h exposure to combination of free 6-MPRP (1×10^-5 M) and free PLL
  cell growth after subculture and 7 additional days: grew at a rate undistinguichable from that of controls

## horseradish peroxidase [HRP]
[2]; Example 6, enzyme concentration in medium 150 μg/ml
  Cell-associated peroxidase activity: 0.14 ΔA460 nm /min/mg cell protein
[2]; Example 6, enzyme concentration in medium 1500 μg/ml
  Cell-associated peroxidase activity: 1.55 ΔA460 nm /min/mg cell protein
[2]; Example 10, 60-minute exposure, 1.5 μg/ml in medium
  Cell-associated peroxidase activity: 0 ΔA460 nm /min/mg cell protein
[2]; Example 10, 60-minute exposure, 15 μg/ml in medium
  Cell-associated peroxidase activity: 0 ΔA460 nm /min/mg cell protein
[3]; 60' exposure, HRP 150 μg/ml, HRP-PLL 1.5, 5 and 15 μg/ml
  staining of HRP reaction products, light microscopy: minimal staining
[3]; HRP at 100-time greater concentration than HRP-PLL
  HRP reaction product, electron microscopy: minimal amounts of stained reaction product

## poly-D-lysine [PDL]
[4]
  Transformed/Normal (uptake ratio): 1
[4]; [7]
  Cellular Uptake in 60 min.: 685 ng/mg cell protein
[4]; Transformed phenotype
  Cellular Uptake in 60 min.: 680 ng/mg cell protein

## poly-L-lysine [PLL (MW 38,000)]
[5]
  Uptake, 1-min: 18.8 ng/mg cell protein
  Uptake, 60-min: 349.4 ng/mg cell protein
  Uptake, 60-min (Corrected for Concentration of 79 nM): 349 ng/mg cell protein

## poly-L-lysine [PLL (MW 115,000)]
[5]
  Uptake, 1-min: 112.3 ng/mg cell protein
  Uptake, 60-min: 513.3 ng/mg cell protein
  Uptake, 60-min (Corrected for Concentration of 79 nM): 1717 ng/mg cell protein

## poly-L-lysine [PLL (MW 250,000)]
[5]
  Uptake, 1-min: 153.7 ng/mg cell protein
  Uptake, 60-min: 695.4 ng/mg cell protein
  Uptake, 60-min (Corrected for Concentration of 79 nM): 4209 ng/mg cell protein

## poly-L-lysine [PLL]
[4]
  Transformed/Normal (uptake ratio): 1.43
[4]; [7]
  Cellular Uptake in 60 min.: 525 ng/mg cell protein
[4]; Transformed phenotype
  Cellular Uptake in 60 min.: 750 ng/mg cell protein
[6]; Experiment No. 1
  % of Controls (tumor weight): 113%
[6]; Experiment No. 1, daily i.v. 4 days from Day 11
  Mean Tumor Weight: 6.05 ± 0.52 g
[6]; Experiment No. 2
  % of Controls (tumor weight): 102%
[6]; Experiment No. 2, daily i.v. 4 days from Day 12
  Mean Tumor Weight: 6.13 ± 0.31 g
